Tested on: herpes disease in the lip region (herpes blisters)
Assay: Topical application of the composition in the oral and/or pharyngeal cavity of voluntary test persons (herpes blisters, other inflammations)
Format: in vivo, human (voluntary test persons)
Conditions: a test subject
Text: This composition was applied in the oral and/or pharyngeal cavity of voluntary test persons. When there were signs that herpes blisters were about to occur or when herpes blisters had already occurred, the composition was applied several times daily to the affected skin sites using a cotton bud. In the case of other inflammations in the oral and/or pharyngeal cavity the solution was also either applied locally or a dilution of this solution was gurgled.

SMILES: Nc1nc2c(ncn2COCCO)c(=O)[nH]1 [Aciclovir]
- relapse / reoccurrence after treatment and healing of acute herpes blisters: relapses very often occurred again within the following 14 days
